T/C data for 20 compounds are collected here from PubChem BioAssay AID192 (DTP/NCI, 2004).

Several values for one entry are separate records, joined by “and”; a condition that tells them apart may be missing. Equal values may be shown once. Toxic doses and inconclusive results are not listed.

In the experiment the test system is BDF1 mice, B16 melanoma ip, median survival T/C. Briefly: NCI In Vivo Anticancer Drug Screen. Data for tumor model B16 Melanoma (intraperitoneal) in B6D2F1 (BDF1) mice. The following applies: endpoint: median survival time, higher = longer survival. In a few lines:
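Read-out: survival or tumor size, given as treated/control ratio. Controls received vehicle only; animals bore transplantable tumors.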

Where [1] appears, read: dose: 12.5 mg/kg/injection, schedule: Q01DX009 (ip), vehicle: saline.
The mark [2] stands for this setting: dose: 25.0 mg/kg/injection, schedule: Q01DX009 (ip), vehicle: saline.
The mark [3] stands for this setting: dose: 1.56 mg/kg/injection, schedule: Q01DX009 (ip), vehicle: saline.
The mark [4] stands for this setting: dose: 3.12 mg/kg/injection, schedule: Q01DX009 (ip), vehicle: saline.
The mark [5] stands for this setting: dose: 6.25 mg/kg/injection, schedule: Q01DX009 (ip), vehicle: saline.
Where [6] appears, read: dose: 6.25 mg/kg/injection, schedule: Q01DX009 (ip), vehicle: Klucel (hydroxypropylcellulose) (HPC).
[7] abbreviates: dose: 12.5 mg/kg/injection, schedule: Q01DX009 (ip), vehicle: Klucel (hydroxypropylcellulose) (HPC).
Where [8] appears, read: dose: 100.0 mg/kg/injection, schedule: Q01DX009 (ip), vehicle: Klucel (hydroxypropylcellulose) (HPC).
Where [9] appears, read: dose: 100.0 mg/kg/injection, schedule: Q01DX009 (ip), vehicle: saline with Tween-80.
The mark [10] stands for this setting: dose: 200.0 mg/kg/injection, schedule: Q01DX009 (ip), vehicle: saline with Tween-80.
[11] abbreviates: dose: 200.0 mg/kg/injection, schedule: Q01DX009 (ip), vehicle: Klucel (hydroxypropylcellulose) (HPC).
Where [12] appears, read: dose: 400.0 mg/kg/injection, schedule: Q01DX009 (ip), vehicle: Klucel (hydroxypropylcellulose) (HPC).
[13] abbreviates: dose: 50.0 mg/kg/injection, schedule: Q01DX009 (ip), vehicle: water.
Setting [14] is: dose: 100.0 mg/kg/injection, schedule: Q01DX009 (ip), vehicle: water.

Turning to `O=c1[nH]c(=O)n(C2CC(O)C(CO)O2)cc1C(F)(F)F` (centres undefined), the T/C is, setting by setting: under setting [1], 104 % of control; (dose: 20.0 mg/kg/injection, schedule: Q01DX009 (ip), vehicle: saline) 105 % of control; under setting [2], 102 % of control; (dose: 50.0 mg/kg/injection, schedule: Q01DX009 (ip), vehicle: saline) 112 % of control.

Regarding `O=C(O)CC(NC(=O)OCc1ccccc1)C(=O)O` (centres undefined), the T/C was 98 % of control under setting [3], 104 % of control under setting [4] and 92 % of control under setting [5].

For the compound `COC(=O)[C@@H]1[C@H](O)[C@H](C)[C@H](O)[C@@](C)(O)/C=C\C=C(C)C(=O)Nc2c(C)c(OC(C)=O)c3c(c2O)C(=O)C(C)=C2OCOC(=C23)C(C)=C[C@@](C)(O)[C@H](O)[C@@H](C)[C@H]1OC(C)=O`, the T/C is, setting by setting: under setting [6], 106 % of control; under setting [7], 99 % of control; (dose: 25.0 mg/kg/injection, schedule: Q01DX009 (ip), vehicle: Klucel (hydroxypropylcellulose) (HPC)) 90 % of control; (dose: 50.0 mg/kg/injection, schedule: Q01DX009 (ip), vehicle: Klucel (hydroxypropylcellulose) (HPC)) 91 % of control; (dose: 75.0 mg/kg/injection, schedule: Q01DX009 (ip), vehicle: saline with Tween-80) 97 % of control; under setting [8], 95 % of control. Besides, the T/C (dose: 150.0 mg/kg/injection, schedule: Q01DX009 (ip), vehicle: saline with Tween-80) was 91 % of control and the T/C (dose: 300.0 mg/kg/injection, schedule: Q01DX009 (ip), vehicle: saline with Tween-80) is 87 % of control.

Turning to `Cc1ccc2c(c1)CC(C)([CH2][Hg][Cl])O2` (centres undefined), the T/C is, setting by setting: (dose: 0.75 mg/kg/injection, schedule: Q01DX009 (ip), vehicle: Klucel (hydroxypropylcellulose) (HPC)) 100 % of control; (dose: 0.75 mg/kg/injection, schedule: Q04DX003 (ip), vehicle: Klucel (hydroxypropylcellulose) (HPC)) 95 % of control; (dose: 1.5 mg/kg/injection, schedule: Q01DX009 (ip), vehicle: Klucel (hydroxypropylcellulose) (HPC)) 93 % of control; (dose: 1.5 mg/kg/injection, schedule: Q04DX003 (ip), vehicle: Klucel (hydroxypropylcellulose) (HPC)) 100 % of control; (dose: 3.0 mg/kg/injection, schedule: Q01DX009 (ip), vehicle: Klucel (hydroxypropylcellulose) (HPC)) 92 % of control and 95 % of control; (dose: 3.0 mg/kg/injection, schedule: Q04DX003 (ip), vehicle: Klucel (hydroxypropylcellulose) (HPC)) 93 % of control and 95 % of control.

Turning to `O=CC(=O)c1ccc(O)cc1`, the T/C by setting is: under setting [3], 105 % of control; under setting [4], 97 % of control; under setting [5], 106 % of control.

On to `COC(=O)C(C)CC(C)(C=O)OC` (centres undefined), for which the T/C reads like this: under setting [9], 97 % of control; under setting [10], 100 % of control; (dose: 400.0 mg/kg/injection, schedule: Q01DX009 (ip), vehicle: saline with Tween-80) 90 % of control.

Turning to `C[n+]1ccc2cc(N)c3c4ccccc4sc3c2c1`, the T/C was 103 % of control (dose: 3.12 mg/kg/injection, schedule: Q01DX009 (ip), vehicle: Klucel (hydroxypropylcellulose) (HPC)); 101 % of control under setting [6]; 113 % of control under setting [5]; 95 % of control under setting [7]; 119 % of control under setting [1]; 91 % of control under setting [2].

Regarding `Cc1ccc(Cl)cc1NC(=O)c1ccc(Cl)cc1`, the T/C runs as follows: under setting [8], 94 % of control; under setting [11], 101 % of control; under setting [12], 116 % of control.

As for `CCOc1ccccc1NC(=O)Nc1ccc(Cl)cc1`, the T/C is, setting by setting: under setting [8], 110 % of control; under setting [11], 103 % of control; under setting [12], 100 % of control.

For the compound `CCCCCC(=O)c1ccc(OCCCN2CCN(C(=O)OCC)CC2)cc1`, the T/C reads like this: under setting [9], 98 % of control; under setting [10], 87 % of control.

With `CN1CCC23c4c5ccc(O)c4OC2C(O)C=CC3C1C5` (centres undefined), the T/C is 114 % of control (dose: 32.0 mg/kg/injection, schedule: Q01DX009 (ip), vehicle: saline); 111 % of control (dose: 64.0 mg/kg/injection, schedule: Q01DX009 (ip), vehicle: saline); 100 % of control (dose: 128.0 mg/kg/injection, schedule: Q01DX009 (ip), vehicle: saline); 94 % of control (dose: 256.0 mg/kg/injection, schedule: Q01DX009 (ip), vehicle: saline).

For the compound `C=CCOc1ccccc1Cl`, the T/C reads like this: (dose: 50.0 mg/kg/injection, schedule: Q04DX003 (ip), vehicle: Klucel (hydroxypropylcellulose) (HPC)) 122 % of control; under setting [8], 100 % of control; under setting [11], 107 % of control; (dose: 200.0 mg/kg/injection, schedule: Q04DX003 (ip), vehicle: Klucel (hydroxypropylcellulose) (HPC)) 119 % of control; under setting [12], 97 % of control.

For the compound `O=c1c2cccc3cccc(c32)c2nc3ccccc3n12`, the T/C (dose: 2.5 mg/kg/injection, schedule: Q01DX009 (ip), vehicle: saline with Tween-80) was 102 % of control and the T/C (dose: 5.0 mg/kg/injection, schedule: Q01DX009 (ip), vehicle: saline with Tween-80) is 114 % of control.

Turning to `Cc1nnc(NC(=O)CCl)s1`, the T/C is 97 % of control (dose: 25.0 mg/kg/injection, schedule: Q01DX009 (ip), vehicle: saline with Tween-80); 105 % of control (dose: 50.0 mg/kg/injection, schedule: Q01DX009 (ip), vehicle: saline with Tween-80); 97 % of control under setting [9].

On to `CCCCCCCC/C=C\CCCCCCCCN1CC(C(=O)[O][Pb]([CH2]C)([CH2]C)[CH2]C)CC1=O` (centres undefined), for which the T/C reads like this: (dose: 0.75 mg/kg/injection, schedule: Q01DX009 (ip), vehicle: saline with Tween-80) 107 % of control; (dose: 1.5 mg/kg/injection, schedule: Q01DX009 (ip), vehicle: saline with Tween-80) 106 % of control; (dose: 3.0 mg/kg/injection, schedule: Q01DX009 (ip), vehicle: saline with Tween-80) 102 % of control; (dose: 6.0 mg/kg/injection, schedule: Q01DX009 (ip), vehicle: saline with Tween-80) 107 % of control.

In the case of `CC#CCOCC(O)CO` (centres undefined), the T/C (dose: 12.5 mg/kg/injection, schedule: Q01DX009 (ip), vehicle: water) was 105 % of control; the T/C (dose: 25.0 mg/kg/injection, schedule: Q01DX009 (ip), vehicle: water) was 93 % of control; the T/C under setting [13] is 113 % of control; the T/C under setting [14] was 114 % of control.

For `C1CCC(OB2OB(OC3CCCCC3)OB(OC3CCCCC3)O2)CC1`, the T/C reads like this: (dose: 50.0 mg/kg/injection, schedule: Q01DX009 (ip), vehicle: other) 103 % of control; (dose: 100.0 mg/kg/injection, schedule: Q01DX009 (ip), vehicle: other) 93 % of control; (dose: 200.0 mg/kg/injection, schedule: Q01DX009 (ip), vehicle: other) 102 % of control.

As for `CN(C)CCSc1cc(O)c2c(c1O)C(=O)c1ccccc1C2=O`, the T/C is, setting by setting: under setting [13], 94 % of control; under setting [14], 102 % of control.

Consider `O=C(NCCCN1CC1)C(=O)NCCCN1CC1`, for which the T/C was 165 % of control under setting [3]; 194 % of control (dose: 3.13 mg/kg/injection, schedule: Q01DX009 (ip), vehicle: saline); 96 % of control under setting [5].

`COc1ccc(NC(=S)Nc2ccc(OC)cc2)cc1`: the T/C by setting is: under setting [8], 106 % of control; under setting [11], 96 % of control; under setting [12], 93 % of control.
